What all share (assay type): cell-based
Assay [1] concerns influenza virus H3N2 in MDCK cells. The settings on record: MOI 0.005, 48 hours, neuraminidase activity, read-out: NA_VIR_H3N2 EC50. The text has this:
(§1) Influenza Virus Neuraminidase Assay (NA Assay)

Assay [2] relates to influenza virus H1N1 in MDCK cells. The settings on record: MOI 0.005, 48 hours, neuraminidase activity, read-out: NA_VIR_H1N1 EC50.
Source text: as §1

Assay [3] concerns influenza A virus minigenome (PB2, PB1, PA, NP) RNP_Alaska in 293T cells. In words: cells. The following applies: HEK-293T, 48 h, read-out: RNP_Alaska EC50.
For assay [4], the system named is influenza A virus minigenome (PB2, PB1, PA, NP) RNP_CAL in 293T cells. In words: cells. The following applies: HEK-293T, 48 h, read-out: RNP_CAL_EC50.
The test system of assay [5] is influenza virus minigenome (PB2, PB1, PA, NP) RNP_Hubei in 293T cells. In words: cells. The settings on record: unidentified influenza virus, HEK-293T, 48 h, read-out: RNP_Hubei EC50.

Consider `O=c1ccn2c(c1O)-c1ncc(CN3CCOCC3)n1C[C@@H]2C(c1ccccc1)c1ccccc1` [Example 67, (S)-6-benzhydryl-11-hydroxy-3-(morpholinomethyl)-5,6-dihydro-10H-imidazo[1,2-a]pyrido[2,1-c]pyrazin-10-one], for which, in assay [1], the EC50 is 10000 nM.
`COCCNC(=O)c1cnc2n1C[C@H](C(c1ccccc1)c1ccccc1)n1ccc(=O)c(O)c1-2` [Example 71, (S)-6-benzhydryl-11-hydroxy-N-(2-methoxyethyl)-10-oxo-5,6-dihydro-10H-imidazo[1,2-a]pyrido[2,1-c]pyrazine-3-carboxamide]: the EC50 in assay [1] was more than 50000 nM.
Take `O=c1ccn2c(c1O)-c1ncc(C(F)(F)F)n1C[C@@H]2C(c1ccccc1)c1ccccc1` [Example 58, (S)-6-benzhydryl-11-hydroxy-3-(trifluoromethyl)-5H-imidazo[1,2-a]pyrido[2,1-c]pyrazin-10(6H)-one]: in assay [2], the EC50 turned out to be 200 nM.
On to `CSc1cccc([C@H](c2ccc(F)cc2)[C@H]2Cn3ccnc3-c3c(O)c(=O)cnn32)c1` [Example 28, (S)-6-((S)-(4-fluorophenyl)(3-(methylthio)phenyl)methyl)-11-hydroxy-5,6-dihydro-10H-imidazo[2′,1′:3,4]pyrazino[1,2-b]pyridazin-10-one], for which the results for the EC50 in assay [3], in assay [4] and in assay [5] were 72 nM, 81 nM and 78 nM, respectively.
`CNC(=O)c1cnc2n1C[C@H](C(c1ccccc1)c1ccccc1)n1ccc(=O)c(O)c1-2` [Example 69, (S)-6-benzhydryl-11-hydroxy-N-methyl-10-oxo-5,6-dihydro-10H-imidazo[1,2-a]pyrido[2,1-c]pyrazine-3-carboxamide]: the EC50 in assay [1] was more than 50000 nM.
Regarding `O=c1ccn2c(c1O)-c1ncc(-c3ccccc3)n1C[C@@H]2C(c1ccccc1)c1ccccc1` [Example 53, (S)-6-benzhydryl-11-hydroxy-3-phenyl-5H-imidazo [1,2-a] pyrido[2,1-c]pyrazin-10(6H)-one], the figures for the EC50 in assay [3], in assay [4] and in assay [5] were 540 nM, 3000 nM and 190 nM, respectively.
As to `CC(=O)Oc1c2n(ncc1=O)[C@@H](C(c1ccc(F)cc1)c1ccc(F)cc1)Cn1ccnc1-2` [Example 85, (S)-6-(bis(4-fluorophenyl)methyl)-10-oxo-5,6-dihydro-10H-imidazo[2′,1′:3,4]pyrazino[1,2-b]pyridazin-11-yl acetate], the EC50 in assay [3] was determined as 19 nM; in assay [4], 22 nM; in assay [5], 49 nM.
For `CC(O)c1cnc2n1C[C@H](C(c1ccccc1)c1ccccc1)n1ccc(=O)c(O)c1-2` (stereo partly drawn) [Example 55, (6S)-6-benzhydryl-11-hydroxy-3-(1-hydroxyethyl)-5H-imidazo [1,2-a]pyrido[2,1-c]pyrazin-10(6H)-one] the same measures were 2600 nM, 1700 nM and 6600 nM.
With `O=c1ccn2c(c1O)-c1nccn1CN2C1c2ccccc2CSc2ccccc21` (stereo not drawn) [Example 74, 6-(6,11-dihydrodibenzo[b,e]thiepin-11-yl)-11-hydroxy-5,6-dihydro-10H-imidazo[1,2-d]pyrido[2,1-f][1,2,4]triazin-10-one], the EC50 in assay [3] came to 130 nM; in assay [4] it was 84 nM; in assay [5] it was 260 nM.
The like results for `CS(=O)(=O)c1cccc([C@H](c2ccc(F)cc2)[C@H]2Cn3ccnc3-c3c(O)c(=O)cnn32)c1` [Example 42, (S)-6-((S)-(4-fluorophenyl)(3-(methylsulfonyl)phenyl)methyl)-11-hydroxy-5,6-dihydro-10H-imidazo[2′,1′:3,4]pyrazino[1,2-b]pyridazin-10-one] were, in that order, 3600 nM, 2800 nM and 3800 nM.
With `O=c1cnn2c(c1O)-c1nccn1CC2C(c1cccc(Cl)c1)c1cccc(Cl)c1` (stereo not drawn) [Example 11, 6-(bis(3-chlorophenyl)methyl)-11-hydroxy-5H-imidazo[2′,1′:3,4]pyrazino[1,2-b]pyridazin-10(6H)-one], the EC50 in assay [3] was found to be 160 nM; in assay [4] it was 80 nM; in assay [5] it was 90 nM.
For the compound `O=c1cnn2c(c1O)-c1nccn1C[C@@H]2[C@@H](c1ccc(F)cc1)c1ccc(C(F)(F)F)cc1` [Example 32, (S)-6-((R)-(4-fluorophenyl)(4-(trifluoromethyl)phenyl)methyl)-11-hydroxy-5,6-dihydro-10H-imidazo[2′,1′:3,4]pyrazino[1,2-b]pyridazin-10-one], the EC50 in assay [3] is 280 nM; in assay [4], 250 nM; in assay [5], 720 nM.
With `O=c1cnn2c(c1O)-c1nccn1C[C@@H]2[C@@H](c1ccc(F)cc1)c1cccc(F)c1` [Example 24, (S)-6-((S)-(3-fluorophenyl)(4-fluorophenyl)methyl)-11-hydroxy-5,6-dihydro-10H-imidazo[2′,1′:3,4]pyrazino[1,2-b]pyridazin-10-one], the EC50 came out at 52 nM in assay [3], 36 nM in assay [4] and 59 nM in assay [5].
`O=c1ccn2c(c1O)-c1ncc(CN3CCSCC3)n1C[C@@H]2C(c1ccccc1)c1ccccc1` [Example 62, (S)-6-benzhydryl-11-hydroxy-3-(thiomorpholinomethyl)-5,6-dihydro-10H-imidazo[1,2-a]pyrido[2,1-c]pyrazin-10-one]: the figures for the EC50 in assay [3], in assay [4] and in assay [5] were 1900 nM, 640 nM and 1500 nM, respectively.
On to `O=c1cnn2c(c1O)-c1nccn1C[C@@H]2[C@@H](c1ccc(F)cc1)c1ccc(F)c(F)c1` [Example 25, (S)-6-((S)-(3,4-difluorophenyl)(4-fluorophenyl)methyl)-11-hydroxy-5H-imidazo[2′,1′:3,4]pyrazino[1,2-b]pyridazin-10(6H)-one], for which the EC50 in assay [3] is 62 nM; in assay [4], 56 nM; in assay [5], 100 nM.
For `O=c1cnn2c(c1O)-c1ncnn1CC2C(c1ccccc1)c1ccccc1` (stereo not drawn) [Example 3, 6-benzhydryl-11-hydroxy-5,6-dihydro-10H-[1,2,4]triazolo[5′,1′:3,4]pyrazino[1,2-b]pyridazin-10-one] the same measures were 1400 nM, 1100 nM and 790 nM.
The like results for `O=c1cnn2c(c1O)-c1nccn1C[C@@H]2[C@H](c1ccccc1)c1ccc(F)cc1` [Example 17, (S)-6-((R)-(4-fluorophenyl)(phenyl)methyl)-11-hydroxy-5,6-dihydro-10H-imidazo[2′,1′:3,4]pyrazino[1,2-b]pyridazin-10-one] were, in that order, 30 nM, 10 nM and 70 nM.
As for `O=c1cnn2c(c1O)-c1nccn1CC2C(c1ccc(F)cc1)c1ccc(F)cc1` (stereo not drawn) [Example 12, 6-(bis(4-fluorophenyl)methyl)-11-hydroxy-5H-imidazo[2′,1′:3,4]pyrazino[1,2-b]pyridazin-10(6H)-one], the EC50 in assay [3] worked out at 70 nM; in assay [4], 800 nM; in assay [5], 60 nM.
On to `Cn1cnc2c1CN(C(c1ccccc1)c1ccccc1)n1ccc(=O)c(O)c1-2` [Example 82, 5-benzhydryl-10-hydroxy-3-methyl-4,5-dihydroimidazo[4,5-d]pyrido[1,2-b]pyridazin-9(3H)-one], for which the EC50 is 4000 nM in assay [1] and 1000 nM in assay [2].
As to `O=c1ccn2c(c1O)-c1ncoc1CN2C(c1ccccc1)c1ccccc1` [Example 83, 5-benzhydryl-10-hydroxy-4,5-dihydro-9H-oxazolo[4,5-d]pyrido[1,2-b]pyridazin-9-one], the figures for the EC50 in assay [3], in assay [4] and in assay [5] were 960 nM, 970 nM and 730 nM, respectively.
Turning to `Cc1ccccc1[C@H](c1ccc(F)cc1)[C@H]1Cn2c(CO)cnc2-c2c(O)c(=O)cnn21` [Example 51, (S)-6-((S)-(4-fluorophenyl)(o-tolyl)methyl)-11-hydroxy-3-(hydroxymethyl)-5,6-dihydro-10H-imidazo[2′,1′:3,4]pyrazino[1,2-b]pyridazin-10-one], the EC50 in assay [3] is 230 nM; in assay [4] it was 90 nM; in assay [5], 160 nM.
With `O=c1cnn2c(c1O)-c1nccn1CC2C(c1ccccc1)c1ccccc1` (stereo not drawn) [Example 1, 6-Benzhydryl-11-hydroxy-5H-imidazo[2′,1′:3,4]pyrazino[1,2-b]pyridazin-10(6H)-one], the EC50 came out at 130 nM in assay [3], 110 nM in assay [4] and 110 nM in assay [5].
With `Cc1ccccc1[C@H](c1ccc(F)cc1)[C@H]1Cn2ccnc2-c2c(O)c(=O)cnn21` [Example 40, (S)-6-((S)-(4-fluorophenyl)(o-tolyl)methyl)-11-hydroxy-5,6-dihydro-10H-imidazo[2′,1′:3,4]pyrazino[1,2-b]pyridazin-10-one], the EC50 in assay [3] is 20 nM; in assay [4], 32 nM; in assay [5] it was 35 nM.
In the case of `O=c1ccn2c(c1O)-c1ncc(C3CC3)n1C[C@@H]2C(c1ccccc1)c1ccccc1` [Example 8, (S)-6-benzhydryl-3-cyclopropyl-11-hydroxy-5H-imidazo[1,2-a]pyrido[2,1-c]pyrazin-10(6H)-one], the EC50 in assay [3] amounted to 490 nM; in assay [4] it was 150 nM; in assay [5], 530 nM.
For the compound `O=c1cnn2c(c1O)-c1nccn1C[C@@H]2[C@@H](c1ccc(F)cc1)c1ccccc1Cl` [Example 29, (S)-6-((S)-(2-chlorophenyl)(4-fluorophenyl)methyl)-11-hydroxy-5,6-dihydro-10H-imidazo[2′,1′:3,4]pyrazino[1,2-b]pyridazin-10-one], the EC50 in assay [3] amounted to 70 nM; in assay [4] it was 72 nM; in assay [5], 58 nM.

Values taken from US11453677B2 (priority 2016, dated 2022).
